The values below come from US9586921B2, “Burdock fruit extract containing arctigenin at high content and process for producing same” (Kracie Pharma, Ltd., priority 2009, dated 2017).

SMILES strings stand for the structures.

In one test the test system is CAPAN-1 Xenografts. The experiment in a line: Evaluation of the anticancer activity in the model animal of tumor (CAPAN-1 Xenografts). Particulars: CAPAN-1 xenograft, 50 μg per mouse by mouth five times a week, one month after beginning of dosage, FIG. 5. Format: in vivo, nude mouse. As for the experimental part:
(§1) [Test 3] (the Evaluation of the Anticancer Activity in the Model Animal of Tumor) (Method for Test) The subcutaneous dorsales of nude mouse (BALB-cAJ nu/nu; Nippon Kurea) which is the donor was inoculated the human pancreas cancer cell line, CAPAN-1 or PSN-1, and the obtained tumor mass of the donor mouse was transplanted into the subcutaneous dorsales of the recipient mouse to generate the model animal of tumor. […] The anticancer activity was evaluated by measuring the size of the tumor mass of subcutaneous dorsales sequentially.

Test [1] deals with pancreas cancer cell line PANC-1. The note with it: PANC-1, undernutrition condition; non-patent document 1; cited from earlier work.
In another test the test system is PSN-1 Xenografts. Nature of the test: Evaluation of the anticancer activity in the model animal of tumor (PSN-1 Xenografts). Format: in vivo, nude mouse. Particulars: PSN-1 xenograft, 50 μg per mouse by mouth five times a week, one month after beginning of dosage, FIG. 6. How it is done:
as §1

In the next test the test system is PSN-1. Nature of the test: Cytotoxic evaluation using the cultured cell (WST-8 viability), PSN-1. The note with it: PSN-1, DMEM (normal nutritional condition) and NDM (nutrient starvation). Format: cell-based, human. How it is done: (§2) [Test 2] (Cytotoxic Evaluation Using the Cultured Cell)
(§3) The pancreas cancer cell line, CAPAN-1, PANC-1 and PSN-1 were plated to the 96 well plate, and they were pre-cultured in DMEM culture media in 37° C., 5% CO2 and 95% Air under normal nutritional condition for 24 hours. After washing these cells with PBS, the extracts which were extracted by the different methods in DMEM culture media (ending D in the graph) which is normal nutritional condition and in NDM culture media (ending I in the graph) which are a nutrient starvation condition (Example 2 and comparative example 2 in the graph) were added to each well including constant concentration of arctigenin, and incubated for 24 hours. The cells were washed in PBS again, 100 μL of DMEM culture media including 10% WST-8 was added to be reacted for two hours and measured the absorbance of 450 nm by the microplate reader, and viability of these cells were evaluated.
In general terms: Tetrazolium assays rely on reduction of a dye to a coloured formazan, in cell work by metabolically active cells.

The next test has as its system PANC-1. Nature of the test: Cytotoxic evaluation using the cultured cell (WST-8 viability), PANC-1. The note with it: PANC-1, DMEM (normal nutritional condition) and NDM (nutrient starvation). Format: cell-based. How it is done:
as §2, §3

Another test deals with CAPAN-1. Nature of the test: Cytotoxic evaluation using the cultured cell (WST-8 viability), CAPAN-1. Type of test: cell-based, human. Particulars: CAPAN-1, DMEM (normal nutritional condition) and NDM (nutrient starvation). How it is done:
as §2, §3

Consider `COc1cc(C[C@H]2C(=O)OC[C@@H]2Cc2ccc(OC)c(OC)c2)ccc1O` [arctigenin], for which the “antitumor effect (size of the tumor mass)” value in the test on CAPAN-1 Xenografts and in the test with PSN-1 Xenografts was “antitumor effect was also obtained” each time. The “effect in screen for release of viability of tumor cells in the undernutrition condition” value in test [1] is listed as “effective”.

As to `COc1ccc(C[C@H]2COC(=O)[C@@H]2Cc2ccc(O[C@@H]3O[C@H](CO)[C@@H](O)[C@H](O)[C@H]3O)c(OC)c2)cc1OC` [arctiin], the anticancer activity result in the test with PSN-1, in the test with PANC-1 and with CAPAN-1 was “in neither condition” each time.
